According to patent publication US9308210B2, “Method for modulating canonical Wnt pathway using folate and inositol” (University of South Florida, priority 2009, dated 2016):
Several values for one entry are separate records, joined by “and”; a condition that tells them apart may be missing. Equal values may be shown once. Where a name gives a salt, the structure may show the parent alone.

Tests used:
C57BL/6 mouse embryos [1] = test: Doppler ultrasonography at E15.5 of mouse embryos exposed to Li or HCy on E6.75, FA rescue; type: in vivo; conditions: for Valve Regurgitation (percent of embryos): hydrochloride
Excerpt: (§1) To determine whether the results in the avian system would extend to the mammalian system, the inventors conducted studies in the mouse embryo. All mice were maintained according to protocols approved by the Institutional Animal Care and Use Committee at the University of South Florida. The C57BL/6 mouse strain (Jackson Laboratories, Bar Harbor, Me.) was used throughout the study. E0.5 was defined as the morning when the vaginal sperm plug was detected. Timed pregnant mice were randomly allocated to receive a single dose of 100 μl of 6.25 mg/ml Li chloride, as determined previously (Chen et al., 2008), 100 μl of 75 μM HCy, or 100 μl of 6.25 mg/ml sodium chloride (control group); all treatments were given intraperitoneally (i.p). On E15.5, the utero-placental circulation of the pregnant mice, and the central and peripheral circulations of the embryos were examined non-invasively in utero using Doppler ultrasonography (Gui et al., 1996; Linask and Huhta, 2000). Sixty-eight embryos were exposed to Li, 59 to HCy and 42 to physiological saline.
(§2) An HCy concentration of 75 μM, used for maternal exposure, was determined empirically using different doses of HCy (i.e. 150, 75, 50 and 15 μM). The minimal teratogenic dose was determined to be 75 μM. […] The single i.p. injection of HCy at E6.75 produced a high number of valve defects (66%), as well as resorptions (46%). […] Because not all embryos within litters are at exactly the same stage of development, the variability of effects seen with either Li or HCy probably reflects the differences in developmental stage.
As a control diet (i.e. normal mouse chow), mice continued to receive 3.3 mg/kg of FA as the baseline to maintain the health of the female mice. […] The animal chow supplemented with 10.5 mg/kg of FA was prepared for us by Harlan Laboratories. As recommended by Harlan, the calculations for the FA level in the special diet are based on the metabolic body weight of mice. Because of the obvious large difference in body weight between humans and mice, and because of the large difference in metabolic rate, Harlan uses the metabolic weight as a method of scaling these differences between species; for mice this was calculated to be BW0.75 (i.e. metabolic weight equals body weight to the 0.75 power). Each mouse consumes approximately 4 g of chow per day; therefore, to obtain the desired dose of 10.5 mg/kg, the inventors added 7.2 mg/kg of FA to the normal 3.3 mg/kg that is present in commercial chow. […]
Doppler ultrasonographic examinations were carried out using the Philips Sonos 5500 (Andover, Mass.) with a 12 MHz transducer and, more recently, with a Vevo 770 (VisualSonics) system. Both instruments provided similar echo patterns. On E15.5, the pregnant mice were anesthetized using a Surgivet Tech 4 anesthesia system (Waukesha, Wis.) with inhalation anesthesia, consisting of 3% isoflurane, administered through a nose cone; the mice were then maintained on 1% isoflurane with 21% oxygen. The mother was placed supine on a heating pad with electrode footpads. The heart rate and temperature of the pregnant mice were monitored using a THM100 (Indus Instruments, Houston, Tex.) during scanning. The body temperature was maintained at 37° C.
Maternal uterine artery blood flow velocity waveforms were obtained and the pulsatility index was calculated. The embryos were visualized and their position mapped in each uterine horn. Blood flow in the heart and blood vessels was detected in each embryo using color Doppler, and blood flow velocity waveforms were obtained using pulsed wave Doppler. Once the embryonic heart was identified by color Doppler, the sample volume of the pulsed Doppler was placed over the entire heart to obtain blood velocities. The gate length was adjusted to completely insonate the beating embryonic heart. The high-pass filter was at its lowest setting of 50 Hz. […]

C57BL/6 mouse embryos [2] = conditions: in vivo
[3] = seven years after FA fortification; Quebec, Canada; cited from earlier work
C57BL/6 mouse embryos [4] = test: Morphometric measurements, resorptions and lethality of mouse embryos after Li or HCy exposure, FA rescue; type: in vivo; conditions: for Resorptions (percent): hydrochloride
Excerpt: as §1, §2
Following echo monitoring on E15.5, placental weight and morphometric measurements of crown-rump length and body weight were obtained. […] HCy administered on E6.75 induced valve defects in 66.1% of the embryos (39/59 embryos). Some litters were allowed to develop to E18.5.

E15.5 mouse hearts = test: Histology of HCy-exposed E15.5 mouse hearts; type: in vivo; conditions: single HCy exposure on E6.75
Protocol: Li- and HCy-exposed embryos, and control NaCl-exposed embryos, were fixed in 4% paraformaldehyde in phosphate buffered saline (PBS, pH 7.4) and paraffin sectioned. Sections were stained with hematoxylin-eosin, and some were stained with Toluidine Blue, and examined. Cardiac regions were analyzed for the presence of any obvious malformations using a Nikon SMZ1500 fluorescent stereomicroscope, and digitized images were obtained using a Nikon DS-L2 camera unit.
Malformed and small aortic valves (AoV in H) and pulmonary valves (PV in I) were apparent. […] This was exemplified by a post-stenotic dilatation of the pulmonary artery, apparent in FIG. 12L. […] In summary, in addition to the general cardiac hypertrophy, the viable cardiac anomalies that were observed on E15.5 following a single HCy exposure on E6.75 related primarily to derivatives of the SHF, that is the outflow, the right ventricle, and the tricuspid and SL valves.

[5] = system: Medium-Chain Acyl CoA Dehydrogenase (MCAD) protein; test: Immunostaining of MCAD protein in E15.5 hearts; type: in vivo, mouse; conditions: E15.5 heart; versus control
Protocol: Li+-, and HCys-, and control, NaCl-exposed, embryos were fixed in 4% paraformaldehyde in PBS, paraffin embedded, and sectioned. Sections were immunostained with MCAD antibodies (Sigma, St. Louis, Mo.) for the protein product of Acadm gene expression. Primary antibody localization was visualized with Cy3-secondary antibodies. Localization of gene and protein expression was analyzed with a Nikon Optiphot II phase microscope (Nikon Instruments, Inc., Melville, N.Y.). Digitized images were obtained with a Nikon DS-L2 Camera unit.

[6] = echo at E15.5 after exposure on E6.75
[7] = echo at E15.5 after single exposure on E6.75
[8] = median, E15.5 after exposure at E6.75

Nc1nc2ncc(CNc3ccc(C(=O)N[C@@H](CCC(=O)O)C(=O)O)cc3)nc2c(=O)[nH]1 [FA, folic acid]
rescue of cardiac defects by baseline FA supplementation (C57BL/6 mouse embryos [1]; 3.3 mg/kg of FA in normal mouse chow): does not rescue cardiac defects | normalization of exposure effects by FA provided on E6.75 (C57BL/6 mouse embryos [1]; FA i.p. on E6.75): normalized the effects of HCy, but not Li | DAPI (C57BL/6 mouse embryos [2]): 1.82 | DVPI (C57BL/6 mouse embryos [2]): 1.04 | E/A Ratio (C57BL/6 mouse embryos [2]): 0.28 | HR (C57BL/6 mouse embryos [2]): 191 bpm | ICT % (C57BL/6 mouse embryos [2]): 7.32% | IRT % (C57BL/6 mouse embryos [2]): 12.82% | MPI (C57BL/6 mouse embryos [2]): 0.50 | OF (C57BL/6 mouse embryos [2]): 34.30 cm/s | RR (C57BL/6 mouse embryos [2]): 314 ms | UAPI (C57BL/6 mouse embryos [2]): 1.71 | yearly decrease in the prevalence of severe heart defects [3]: 6%

N[C@H]1CCSC1=O [HCy, L-homocysteine thiolactone hydrochloride]
outflow peak velocity, maximum mean value (C57BL/6 mouse embryos [1]; E15.5): 84.0 | outflow peak velocity, maximum value (C57BL/6 mouse embryos [1]; E15.5): 84.00 cm/s | outflow peak velocity, minimum mean value (C57BL/6 mouse embryos [1]; E15.5): 18.5 | outflow peak velocity, minimum value (C57BL/6 mouse embryos [1]; E15.5): 18.53 cm/s | AV valve regurgitation, percent of embryos (C57BL/6 mouse embryos [1]; [6]): 10% | SL valve regurgitation, percent of embryos (C57BL/6 mouse embryos [1]; [6]): 53% | both SL and AV valve regurgitation, percent of embryos (C57BL/6 mouse embryos [1]; [6]): 3% | Valve Regurgitation (embryos affected/total) (C57BL/6 mouse embryos [1]; [7]): 39/59 | Valve Regurgitation (percent of embryos) (C57BL/6 mouse embryos [1]; [7]): 66% and 66.1% | Valve Regurgitation (percent of embryos) (C57BL/6 mouse embryos [1]; echo at E15.5 after single exposure on E6.75, listed as HCys): 66.1% | minimal teratogenic dose (C57BL/6 mouse embryos [1]; maternal exposure, mouse, 150, 75, 50 and 15 μM tested): 75 µM | Embryonic A vel (C57BL/6 mouse embryos [1]; [8]): 40.14 cm/s | Embryonic Descending Aorta PI (C57BL/6 mouse embryos [1]; [8]): 1.99 | Embryonic Ductus Veno sus PI (C57BL/6 mouse embryos [1]; [8]): 0.97 | Embryonic E vel (C57BL/6 mouse embryos [1]; [8]): 12.25 cm/s | Embryonic E/A ratio (C57BL/6 mouse embryos [1]; [8]): 0.30 | Embryonic ET % (C57BL/6 mouse embryos [1]; [8]): 42.51% | Embryonic Heart Rate (C57BL/6 mouse embryos [1]; [8]): 181 beats/min | Embryonic ICT % (C57BL/6 mouse embryos [1]; [8]): 6.56% | Embryonic IRT % (C57BL/6 mouse embryos [1]; [8]): 11.93% | Embryonic MPI (C57BL/6 mouse embryos [1]; [8]): 0.44 | Embryonic OF peak velocity (C57BL/6 mouse embryos [1]; [8]): 39.92 cm/s | Embryonic Umbilical Artery PI (C57BL/6 mouse embryos [1]; [8]): 1.55 | Maternal Heart Rate (C57BL/6 mouse embryos [1]; [8]): #458 beats/min | Maternal Uterine Artery PI (C57BL/6 mouse embryos [1]; [8]): 2.82 | valve defects after i.p. injection on E7.75 (C57BL/6 mouse embryos [1]; mouse, in vivo, ip): did not cause any valve defects | Body Weight (C57BL/6 mouse embryos [4]; E15.5 after exposure on E6.75): 0.35 g | CRL (C57BL/6 mouse embryos [4]; E15.5 after exposure on E6.75): 13 mm | Placenta Weight (C57BL/6 mouse embryos [4]; E15.5 after exposure on E6.75): 0.11 g | embryonic lethality (C57BL/6 mouse embryos [4]; acute single dose of HCy at E5.5): 79% | Resorptions (embryos/total) (C57BL/6 mouse embryos [4]; exposure on E6.75): 27/59 | Resorptions (percent) (C57BL/6 mouse embryos [4]; exposure on E6.75): 46% | Resorptions (percent) (C57BL/6 mouse embryos [4]; exposure on E6.75, listed as HCys): 45.7% | placental weight, crown-rump length and body weight versus control embryos (C57BL/6 mouse embryos [4]; single exposure on E6.75, E15.5): significantly decreased | cardiac pathology on E15.5 (E15.5 mouse hearts): right and left side cardiac hypertrophy | MCAD protein [5]: increased
